In BindingDB's records for patent US9427428 (Janssen Ireland, 2016) one finds EC50 data, which are given here for one molecule.

The experiment addresses T1, Genome polyprotein [810-3010] (Hepatitis C virus genotype 1b (isolate Con1), UniProt Q9WMX2).
T1 construct: 810-3010
The experiment can be described thus: Stable Replicon Assay. An excerpt: The assay utilized the stably transfected cell line Huh-7 luc/neo (hereafter referred to as Huh-Luc). This cell line harbors an RNA encoding a bicistronic expression construct comprising the wild type NS3-NS5B regions of HCV type 1b translated from an Internal Ribosome Entry Site (IRES) from encephalomyocarditis virus (EMCV), preceded by a reporter portion (FfL-luciferase), and a selectable marker portion (neoR, neomycine phosphotransferase). The construct is flanked by 5' and 3' NTRs (non-translated regions) from HCV type 1b. Continued culture of the replicon cells in the presence of G418 (neoR) is dependent on the replication of the HCV RNA. The stably transfected replicon cells that replicate HCV RNA autonomously and to high levels, encoding inter alia luciferase, were used for screening the antiviral compounds. The replicon cells were plated in 384 well plates in the presence of the test and control compounds which were added in various concentrations. Following an incubation of three days, HCV replication was measured by assaying luciferase activity (using standard luciferase assay substrates and reagents and a Perkin Elmer ViewLux™ ultraHTS microplate imager). […] The inhibitory activity of the compound was monitored on the Huh-Luc cells, enabling a dose-response curve for each test compound.

T1 sequence (Q9WMX2 810-3010): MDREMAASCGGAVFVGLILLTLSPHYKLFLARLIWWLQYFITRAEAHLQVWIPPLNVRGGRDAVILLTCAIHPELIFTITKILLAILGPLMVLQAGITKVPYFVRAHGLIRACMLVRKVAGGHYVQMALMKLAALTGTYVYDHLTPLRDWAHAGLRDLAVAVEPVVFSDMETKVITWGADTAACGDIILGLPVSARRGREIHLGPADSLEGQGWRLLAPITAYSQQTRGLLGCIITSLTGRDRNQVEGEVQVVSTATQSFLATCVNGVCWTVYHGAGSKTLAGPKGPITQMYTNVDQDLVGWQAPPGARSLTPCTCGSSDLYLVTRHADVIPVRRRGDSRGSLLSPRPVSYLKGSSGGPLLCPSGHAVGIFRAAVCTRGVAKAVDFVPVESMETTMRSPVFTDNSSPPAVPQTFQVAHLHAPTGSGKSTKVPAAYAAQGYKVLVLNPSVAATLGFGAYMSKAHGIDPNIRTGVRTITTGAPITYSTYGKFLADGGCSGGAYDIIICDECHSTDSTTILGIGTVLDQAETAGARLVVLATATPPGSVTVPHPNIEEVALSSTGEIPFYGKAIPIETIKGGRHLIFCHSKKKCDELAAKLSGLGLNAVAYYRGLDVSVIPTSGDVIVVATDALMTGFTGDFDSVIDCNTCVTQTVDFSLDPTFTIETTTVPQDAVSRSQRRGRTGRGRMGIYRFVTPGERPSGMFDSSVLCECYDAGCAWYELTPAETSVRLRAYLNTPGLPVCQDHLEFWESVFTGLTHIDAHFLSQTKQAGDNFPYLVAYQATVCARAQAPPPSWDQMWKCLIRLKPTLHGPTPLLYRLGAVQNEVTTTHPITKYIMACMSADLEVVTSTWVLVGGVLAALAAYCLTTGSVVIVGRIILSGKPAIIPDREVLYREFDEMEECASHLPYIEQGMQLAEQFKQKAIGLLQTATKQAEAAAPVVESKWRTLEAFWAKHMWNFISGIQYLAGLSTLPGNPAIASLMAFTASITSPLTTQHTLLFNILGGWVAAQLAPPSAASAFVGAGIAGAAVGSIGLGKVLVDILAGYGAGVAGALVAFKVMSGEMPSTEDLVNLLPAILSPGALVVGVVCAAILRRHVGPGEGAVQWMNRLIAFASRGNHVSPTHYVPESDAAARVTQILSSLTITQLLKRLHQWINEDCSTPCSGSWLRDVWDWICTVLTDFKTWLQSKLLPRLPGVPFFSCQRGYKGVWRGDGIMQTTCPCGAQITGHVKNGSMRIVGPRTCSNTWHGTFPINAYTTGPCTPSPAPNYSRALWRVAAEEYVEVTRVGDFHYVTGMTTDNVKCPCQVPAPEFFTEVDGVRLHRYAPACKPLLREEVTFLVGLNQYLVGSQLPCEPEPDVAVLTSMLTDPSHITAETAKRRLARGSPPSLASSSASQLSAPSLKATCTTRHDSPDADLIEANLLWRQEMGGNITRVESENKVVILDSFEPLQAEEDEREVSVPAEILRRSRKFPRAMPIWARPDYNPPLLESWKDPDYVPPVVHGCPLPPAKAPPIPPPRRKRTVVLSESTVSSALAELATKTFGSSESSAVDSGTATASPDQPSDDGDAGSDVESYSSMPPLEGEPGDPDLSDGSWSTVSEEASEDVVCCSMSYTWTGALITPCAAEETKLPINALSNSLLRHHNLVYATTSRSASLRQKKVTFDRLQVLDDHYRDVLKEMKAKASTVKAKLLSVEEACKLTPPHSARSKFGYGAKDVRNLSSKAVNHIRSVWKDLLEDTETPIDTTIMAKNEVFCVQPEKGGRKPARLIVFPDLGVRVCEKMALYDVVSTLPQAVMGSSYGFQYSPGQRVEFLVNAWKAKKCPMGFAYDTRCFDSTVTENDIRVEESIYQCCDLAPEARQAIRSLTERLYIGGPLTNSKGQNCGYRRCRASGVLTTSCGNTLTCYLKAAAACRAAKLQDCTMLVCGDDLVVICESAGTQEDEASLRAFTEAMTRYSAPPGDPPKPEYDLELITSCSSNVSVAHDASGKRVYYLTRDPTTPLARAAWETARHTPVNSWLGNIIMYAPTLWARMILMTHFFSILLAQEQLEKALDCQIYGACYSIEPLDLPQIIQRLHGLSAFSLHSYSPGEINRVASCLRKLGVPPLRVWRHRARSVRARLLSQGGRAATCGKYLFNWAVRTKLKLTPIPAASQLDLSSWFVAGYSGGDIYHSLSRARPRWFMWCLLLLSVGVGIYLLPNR

Turning to `CC[C@H](C)[C@H](NC(=O)OC)C(=O)N1CCC[C@H]1c1ncc(-c2ccc3cc(-c4ccc5[nH]c([C@@H]6CCCN6C(=O)[C@@H](NC(=O)OC)[C@@H](C)OC)nc5c4)ccc3c2)[nH]1` [US9427428, 21], the response was half-maximal at 2.2 nM (EC50).
